Like-named read-outs stand apart in the source and are kept apart here.
Experiments:
gastric acid secretion = assay: gastric acid secretion-inhibiting activity (pylorus ligation according to Shay et al.); format: in vivo, male rats; conditions: Rattus norvegicus, read-out: Gastric acid secretion-inhibition, ID 50
Method: The test procedure described hereinafter was used to determine the gastric acid secretion-inhibiting activity:
The pylorus of male rats is ligated under slight ether narcosis in accordance with Shay et al. [Gastroenterology 5, 43 (1945)]. The substances to be tested, suspended in 0.5% carboxymethylcellulose, are administered intraduodenally. Control animals are treated only with the vehicle. Five hours after the ligation the animals are killed, the volume and acidity of their gastric juice are determined and the values obtained are compared with those of control animals. The ID50 is that dosage of a test substance which brings about a 50% decrease of the secretion in comparison to the control animals.
(§1) In the following Table there are given for a series of representative compounds of formula I the results of the testing with respect to their mucosa-protective activity ("ethanol test") and to their gastric acid secretion-inhibiting activity. Moreover, this Table contains data concerning the acute toxicity (LD50 in the case of single oral administration to mice).

[1] = test system: mucous membrane of the stomach; assay: ethanol test (mucosa-protective activity; ethanol-induced gastric lesions); format: in vivo, male rats; conditions: Rattus norvegicus, po, read-out: Ethanol Test ID 50
Method: The experimental procedure described hereinafter was used to determine the muscosa-protective property:
The oral administration of absolute ethanol to male rats in a dosage of 1 ml per rat leads within 1 hour to bloody lesions of the mucous membrane of the stomach. Various dosages of the substances to be tested (suspended in 0.125% carboxymethylcellulose) or of the vehicle alone (control) are administered to the rats orally (1 ml per rat) 30 minutes prior to the treatment with ethanol. One hour after the administration of the ethanol the animals are killed, their stomachs are investigated for the presence of lesions and the number and the total dimension of such lesions are determined. The ID50 is that dosage of a test substance which reduces by 50% the number of lesions in comparison to the control group.
as §1

[2] = acute toxicity (single oral administration); conditions: mouse, in vivo, read-out: Toxicity LD 50
Source text: Representative compounds of formula I were investigated with respect to their mucosa-protective and gastric acid secretion-inhibiting properties as well as to their toxicity.
as §1

[3] = intraduodenal, 5 hours after pylorus ligation, 50% decrease of secretion vs control, male rats
[4] = 30 minutes before ethanol, dosage reducing number of lesions by 50% vs control, male rats
[5] = p.o., single oral administration to mice

CC(C)=CC(=O)CC/C(C)=C/CC/C(C)=C/CO [K, (all-E)-13-hydroxy-2,7,11-trimethyl-2,7,11-tridecatrien-4-one]
ED50 (gastric acid secretion; [3]): 60.8 mg/kg
ED50 [1, 4]: 3.6 mg/kg

C/C=C/C(=O)CC/C(C)=C/CC/C(C)=C/CO [D, (all-E)-13-hydroxy-7,11-dimethyl-2,7,11-tridecatrien-4-one]
LD50 ([2]; po): 1000 to 2000 mg/kg
ED50 (gastric acid secretion; [3]): 66 mg/kg
ED50 [1, 4]: 0.79 mg/kg

C=C(C)C1(CC/C(C)=C/CC/C(C)=C/CO)OCCO1 [I, (all-E)-3,7-Dimethyl-9-[2-(1-methylvinyl)-1,3-dioxolan-2-yl]-2,6-nonadien-1-ol]
LD50 ([2]; po): > 4000 mg/kg
ED50 (gastric acid secretion; [3]): 13.2 mg/kg
ED50 [1, 4]: 2.7 mg/kg

C=C(C)C(=O)CC/C(C)=C/CC/C(C)=C/CO [F, (all-E)-12-hydroxy-2,6,10-trimethyl-1,6,10-dodecatrien-3-one]
LD50 ([2]; po): 625 to 1250 mg/kg
ED50 (gastric acid secretion; [3]): 27.7 mg/kg
ED50 [1, 4]: 1.3 mg/kg

C=C(C)C(CC/C(C)=C/CC/C(C)=C/CO)(OC)OC [Q, (all-E)-10,10-dimethoxy-3,7,11-trimethyl-2,6,11-dodecatrien-1-ol]
LD50 ([2]; po): > 5000 mg/kg
ED50 (gastric acid secretion; [3]): 4.7 mg/kg
ED50 [1, 4]: 5.3 mg/kg

C/C(=C\CO)CC/C=C(\C)CCC(=O)C#C[Si](C)(C)C [S, (all-E)-12-hydroxy-6,10-dimethyl-1-(trimethylsilyl)-6,10-dodecadien-1-yn-3-one]
ED50 (gastric acid secretion; 5 h): 46.9 mg/kg
ED50 [1]: 6.5 mg/kg

C=C(C)C(O)CC/C(C)=C/CC/C(C)=C/CO (stereo not drawn) [N, (all-E)-3,7,11-trimethyl-2,6,11-dodecatriene-1,10-diol]
LD50 ([2]; po): > 2000 mg/kg
ED50 (gastric acid secretion; [3]): 41.6 mg/kg
ED50 [1, 4]: 3.2 mg/kg

C=C(C)C(=O)CC/C(C)=C\CC/C(C)=C\CO [H, (6Z,10Z)-12-hydroxy-2,6,10-trimethyl-1,6,10-dodecatrien-3-one]
LD50 [2, 5]: 2500 to 5000 mg/kg
ED50 (gastric acid secretion; [3]): 57.7 mg/kg
ED50 [1, 4]: 1.8 mg/kg

C=C(C)C(O)CC/C(C)=C/CC/C(C)=C/C=O (stereo not drawn) [R, (all-E)-10-hydroxy-3,7,11-trimethyl-2,6,11-dodecatrienal]
LD50 ([2]; po): > 5000 mg/kg
ED50 (gastric acid secretion; [3]): 28.6 mg/kg
ED50 [1, 4]: 6.4 mg/kg

C#CC(CC/C(C)=C/CC/C(C)=C/CO)(OCC)OCC [E, (all-E)-10,10-diethoxy-3,7-dimethyl-2,6-dodecadien-11-yn-1-ol]
ED50 (gastric acid secretion; [3]): 18.4 mg/kg
ED50 [1, 4]: 0.93 mg/kg

CC#CC(=O)CC/C(C)=C/CC/C(C)=C/CO [C, (all-E)-13-hydroxy-7,11-dimethyl-7,11-tridecadien-2-yn-4-one]
LD50 ([2]; po): 1000 to 2000 mg/kg
ED50 (gastric acid secretion; [3]): 80.3 mg/kg
ED50 [1, 4]: 0.78 mg/kg

C=C(C)C(O)CC/C(C)=C/CC/C(C)=C/C(=O)O (stereo not drawn) [O, (all-E)-10-hydroxy-3,7,11-trimethyl-2,6,11-dodecatrienoic acid]
LD50 ([2]; po): 1250 to 2500 mg/kg
ED50 (gastric acid secretion; [3]): 48.8 mg/kg
ED50 [1, 4]: 26.8 mg/kg

CC=CC(O)CC/C(C)=C/CC/C(C)=C/CO (mixture of isomers) [V, (2E,6E,11(E/Z))-3,7-dimethyl-2,6,11-tridecatriene-1,10-diol]
ED50 (gastric acid secretion; [3]): 57.4 mg/kg
ED50 [1, 4]: 9.3 mg/kg

C#CC(=O)CC/C(C)=C/CC/C(C)=C/CO [A, (all-E)-12-hydroxy-6,10-dimethyl-6,10-dodecadien-1-yn-3-one]
LD50 ([2]; po): 1000 to 2000 mg/kg
ED50 (gastric acid secretion; [3]): 2 mg/kg
ED50 [1, 4]: 0.55 mg/kg

C=C(C)C(=O)CC/C(C)=C/CC/C(C)=C/C=O [G, (all-E)-10-oxo-3,7,11-trimethyl-2,6,11-dodecatrienal]
LD50 ([2]; po): 1000 to 2000 mg/kg
ED50 (gastric acid secretion; [3]): 62.4 mg/kg
ED50 [1, 4]: 1.8 mg/kg

C=C(C)C(=O)CC/C(C)=C/CC/C(C)=C\CO [L, (6E,10Z)-12-hydroxy-2,6,10-trimethyl-1,6,10-dodecatrien-3-one]
LD50 [2, 5]: 625 to 1250 mg/kg
ED50 (gastric acid secretion; [3]): 73.4 mg/kg
ED50 [1, 4]: 4.4 mg/kg

C=C(C)C(=O)CC/C(C)=C\CC/C(C)=C/CO [M, (6Z,10E)-12-hydroxy-2,6,10-trimethyl-1,6,10-dodecatrien-3-one]
LD50 [2, 5]: 2500 to 5000 mg/kg
ED50 (gastric acid secretion; [3]): 62.7 mg/kg
ED50 [1, 4]: 4.5 mg/kg

C=CC(=O)CC/C(C)=C/CC/C(C)=C/CO [B, (all-E)-12-hydroxy-6,10-dimethyl-1,6,10-dodecatrien-3-one]
ED50 (gastric acid secretion; [3]): 68.2 mg/kg
ED50 [1, 4]: 0.62 mg/kg

C#CC(CC/C(C)=C/CC/C(C)=C/CO)=NOC (mixture of isomers) [U, (6E,10E)-12-hydroxy-6,10-dimethyl-6,10-dodecadien-1-yn-3-one (E/Z)-O-methyl oxime]
LD50 ([2]; po): 1000 to 2000 mg/kg
ED50 (gastric acid secretion; [3]): 43.9 mg/kg
ED50 [1, 4]: 7.9 mg/kg

C=C(C)C(=O)CC/C(C)=C/CC/C(C)=C/C=NO (mixture of isomers) [T, (2E,6E)-3,7,11-trimethyl-10-oxo-2,6,11-dodecatrienal (E/Z)-oxime]
ED50 (gastric acid secretion; [3]): 9.3 mg/kg
ED50 [1, 4]: 7.8 mg/kg

C=C(C)C(=O)CC/C(C)=C/CC/C(C)=C/C(N)=O [J, (E,E)-3,7,11-trimethyl-10-oxo-2,6,11-dodecatrienamide]
LD50 [2, 5]: 1000 to 2000 mg/kg
ED50 (gastric acid secretion; 5 h): 63.9 mg/kg
ED50 [1]: 3.4 mg/kg

C=C(C)C(=O)CC/C(C)=C/CC/C(C)=C/C(=O)O [P, (all-E)-10-Oxo-3,7,11-trimethyl-2,6,11-dodecatrienoic acid]
LD50 ([2]; po): 1250 to 2500 mg/kg
ED50 (gastric acid secretion; [3]): 79.6 mg/kg
ED50 [1, 4]: 5 mg/kg

Reference: patent US4827004A, “Isoprene derivatives” (Hoffmann-La Roche Inc., priority 1986, dated 1989)
